The text below walks through data of PubChem BioAssay AID588654 (The Scripps Research Institute Molecular Screening Center, 2011).

The structures appear in SMILES notation. Active and inactive are the calls of the source.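 How the source made its calls: active means EGF receptor protein level falling or rising by at least 30% versus DMSO-treated cells; inactive means the rest.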

The target in the test is Epidermal growth factor receptor (Homo sapiens) (UniProt P00533). As to the kind of experiment: EGFR abundance shift in colorectal carcinoma cells – HT29 cells, chemiluminescent western blot, total EGFR, counter-screen for KLF5 inhibitor project, late-stage follow-up (AID 588654). Conditions: 24 h, at 10 µM, stronger effect = higher value. For orientation: In western blotting, separated proteins are transferred to a membrane and probed.
Sequence of Epidermal growth factor receptor (Homo sapiens) (P00533 whole entry, looked up): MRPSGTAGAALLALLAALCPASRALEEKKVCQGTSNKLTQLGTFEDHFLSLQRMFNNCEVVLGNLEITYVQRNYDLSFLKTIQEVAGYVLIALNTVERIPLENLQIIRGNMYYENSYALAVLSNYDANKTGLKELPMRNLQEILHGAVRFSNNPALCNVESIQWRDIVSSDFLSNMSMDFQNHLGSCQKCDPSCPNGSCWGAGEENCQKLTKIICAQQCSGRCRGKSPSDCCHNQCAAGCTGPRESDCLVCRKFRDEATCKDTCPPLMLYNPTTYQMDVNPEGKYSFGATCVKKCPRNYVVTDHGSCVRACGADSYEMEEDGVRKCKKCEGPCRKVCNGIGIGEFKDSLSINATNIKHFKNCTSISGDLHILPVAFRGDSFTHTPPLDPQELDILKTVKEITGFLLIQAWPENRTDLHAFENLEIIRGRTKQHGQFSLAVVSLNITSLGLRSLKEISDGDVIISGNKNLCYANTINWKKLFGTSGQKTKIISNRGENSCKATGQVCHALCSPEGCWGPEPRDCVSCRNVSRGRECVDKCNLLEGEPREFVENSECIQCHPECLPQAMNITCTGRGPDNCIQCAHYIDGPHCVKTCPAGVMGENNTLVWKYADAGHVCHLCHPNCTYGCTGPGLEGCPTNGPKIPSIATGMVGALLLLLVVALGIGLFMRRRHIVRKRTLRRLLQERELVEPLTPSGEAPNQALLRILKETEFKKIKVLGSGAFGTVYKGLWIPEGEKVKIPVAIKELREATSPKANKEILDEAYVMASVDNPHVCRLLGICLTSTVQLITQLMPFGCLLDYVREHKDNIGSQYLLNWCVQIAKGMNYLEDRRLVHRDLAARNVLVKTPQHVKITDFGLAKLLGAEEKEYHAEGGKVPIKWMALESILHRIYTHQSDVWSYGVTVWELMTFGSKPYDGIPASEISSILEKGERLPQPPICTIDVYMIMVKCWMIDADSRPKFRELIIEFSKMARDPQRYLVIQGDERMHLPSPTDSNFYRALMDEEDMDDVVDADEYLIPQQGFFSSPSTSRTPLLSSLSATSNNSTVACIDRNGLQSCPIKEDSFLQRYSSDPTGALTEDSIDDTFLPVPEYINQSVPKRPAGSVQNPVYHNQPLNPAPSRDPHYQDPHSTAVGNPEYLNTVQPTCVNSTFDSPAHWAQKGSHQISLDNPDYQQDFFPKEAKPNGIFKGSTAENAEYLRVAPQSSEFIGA
For `CN(C(=O)CNC(=O)/C=C/c1cccc(Cl)c1)C1CCS(=O)(=O)CC1`, the inhibition (commonly the change of the read-out against control, counted positive when it falls) is 7.26% (inactive). The result for `CN(C(=O)COC(=O)/C=C/c1cccc([N+](=O)[O-])c1)C1CCS(=O)(=O)C1` (stereo not drawn) reads 16.4% (inactive). The same measure for `CN(C(=O)CNC(=O)/C=C/c1cccc(Cl)c1)C1CCS(=O)(=O)C1` (stereo not drawn): -0.393% (inactive).
